Molecules are shown by their SMILES.

Chain of TrkA kinase (P04629 33-796): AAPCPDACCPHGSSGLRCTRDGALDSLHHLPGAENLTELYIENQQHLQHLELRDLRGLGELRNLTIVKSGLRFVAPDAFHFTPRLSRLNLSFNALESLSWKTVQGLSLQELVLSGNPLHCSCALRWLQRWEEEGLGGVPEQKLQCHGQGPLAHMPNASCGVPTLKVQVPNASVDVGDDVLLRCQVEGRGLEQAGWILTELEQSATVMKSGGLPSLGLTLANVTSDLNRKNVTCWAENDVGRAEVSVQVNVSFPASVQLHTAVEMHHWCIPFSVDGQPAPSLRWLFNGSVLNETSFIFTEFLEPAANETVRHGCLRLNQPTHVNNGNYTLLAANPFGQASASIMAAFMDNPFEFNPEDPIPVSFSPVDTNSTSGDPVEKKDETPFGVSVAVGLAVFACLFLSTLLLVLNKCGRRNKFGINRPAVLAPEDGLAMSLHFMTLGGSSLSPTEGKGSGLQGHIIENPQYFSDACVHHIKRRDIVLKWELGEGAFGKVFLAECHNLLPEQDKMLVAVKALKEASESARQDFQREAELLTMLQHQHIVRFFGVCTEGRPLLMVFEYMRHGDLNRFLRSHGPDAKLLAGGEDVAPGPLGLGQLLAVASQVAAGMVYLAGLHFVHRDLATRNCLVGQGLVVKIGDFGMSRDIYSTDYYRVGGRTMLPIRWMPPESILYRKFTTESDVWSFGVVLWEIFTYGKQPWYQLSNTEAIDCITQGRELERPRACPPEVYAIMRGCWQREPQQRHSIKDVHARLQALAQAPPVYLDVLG

The experiment addresses TrkA kinase (Homo sapiens (Human), UniProt P04629). The experiment is described as follows: HTRF assay for inhibitory activity (IC50) against NTRK kinase, TrkA. The class given is biochemical. The conditions noted are these: Table 1, ATP 40 μM, kinase 0.5 nM. How it is done: 1. Assay for Inhibitory Activity (IC50) Against NTRK Kinase
A testing platform for TrkA, TrkB and TrkC kinase activity was established based on Homogeneous Time-Resolved Fluorescence (HTRF) assay, and the activities of the compounds were tested using the platform. The compounds were subjected to three-fold gradient dilution with 100% DMSO with a starting concentration of 1 mM (11 concentrations in total). 4 μL of diluted sample for each concentration was added to 96 μL of reaction buffer (50 mM HEPES, pH7.4, 5 mM MgCl2, 1 mM NaVO3, 0.001% Tween-20, 0.01% BSA and 1 mM DTT) and mixed homogeneously to be used as a 4* compound. The reaction buffer was used to formulate 2* TrkA, TrkB and TrkC kinases (purchased from Carna Biosciences 08-186, 08-187, 08-197, and the final concentrations thereof were 0.5 nM, 0.1 nM, and 1 nM, respectively) and 4* substrate mixture (ATP+TK peptide) (wherein the final concentrations of ATP were 40 μM, 50 μM, and 20 μM, respectively; TK peptide, HTRF® KinEASE™-TK, was purchased from Cisbio, and the final concentration thereof was 100 nM) for use. 2.5 μL of the 4* compound was added to a 384-well plate (OptiPlate-384, purchased from PerkinElmer), and then 5 μL of the 2* TrkA, TrkB and TrkC kinases were added, and mixed homogeneously by centrifugation. Then 2.5 μL of the 4* substrate mixture was added to initiate the reaction (the total reaction volume is 10 μL). The 384-well plate was placed in an incubator and incubated for 60 min at 23° C. Then the reaction was terminated by adding 5 μL of Eu3+ cryptate-labeled anti-phosphotyrosine antibody (HTRF® KinEASE™-TK, purchased from Cisbio), and 5 μL of Streptavidin-XL-665 (HTRF® KinEASE™-TK, purchased from Cisbio). After incubated for 1 hr in the incubator, the fluorescence values were read on Envision (purchased from PerkinElmer). The excitation wavelength was 320 nm, and the emission wavelengths for detection were 665 nm and 620 nm. The enzymatic activity was represented by a ratio of the two readout at the two emission wavelengths. The enzymatic activity for each compound was tested at 11 concentrations, and IC50 values of the compounds were obtained by calculating the data using GraFit6.0 software (Erithacus Software).
For `Cn1cc(-c2c(N)nn3ccc(N4CCC[C@@H]4c4cc(F)ccc4F)nc23)cn1` [Example 34], the IC50 was below 1 nM.
Turning to `CNC(=O)c1c(N)nn2ccc(N3CCC[C@@H]3c3cc(F)ccc3F)nc12` [Example 3, (R)-2-amino-5-(2-(2,5-difluorophenyl)pyrrolidin-1-yl)-N-methylpyrazolo[1,5-a]pyrimidine-3-carboxamide], the IC50 was below 1 nM.
Take `NC(=S)c1c(N)nn2ccc(N3CCCC3c3cc(F)ccc3F)nc12` (centres unmarked) [Example 31, 2-amino-5-(2-(2,5-difluorophenyl)pyrrolidin-1-yl)pyrazolo[1,5-a]pyrimidine-3-thioamide]: the IC50 was below 1 nM.
Next, `CCOC(=O)c1c(NC(=O)NC)nn2ccc(N3CCCC3c3cc(F)ccc3F)nc12` (centres unmarked) [Example 7, ethyl 5-(2-(2,5-difluorophenyl)pyrrolidin-1-yl)-2-(3-methylureido)pyrazolo[1,5-a]pyrimidine-3-carboxylate]: below 100 nM; `NC(=O)c1c(N)nn2ccc(N3C[C@@H](O)CC3c3cc(F)ccc3F)nc12` (stereo in doubt) [Example 47, 2-amino-5-((2R,4S)-2-(2,5-difluorophenyl)-4-hydroxypyrrolidin-1-yl)pyrazolo[1,5-a]pyrimidine-3-carboxamide]: below 1000 nM; `CCOC(=O)c1c(N)nn2ccc(N3CCC[C@@H]3c3cc(F)ccc3F)nc12` [Example 1, ethyl (R)-2-amino-5-(2-(2,5-difluorophenyl)pyrrolidin-1-yl)pyrazolo[1,5-a]pyrimidine-3-carboxylate]: below 1 nM.
Next, `Cc1csc(-c2c(N)nn3ccc(N4CCCC4c4cc(F)ccc4F)nc23)n1` (centres unmarked) [Example 28]: below 25 nM.
`Nc1nn2ccc(N3CCCC3c3cc(F)ccc3F)nc2c1-c1cccc(N2CCOCC2)c1` (centres unmarked) [Example 33, 5-(2-(2,5-difluorophenyl)pyrrolidin-1-yl)-3-(3-morpholinylphenyl)pyrazolo[1,5-a]pyrimidin-2-amine] gave an IC50 below 25 nM.
For the compound `CN(C)CCNC(=O)c1c(N)nn2ccc(N3CCC[C@@H]3c3cc(F)ccc3F)nc12` [Example 19, (R)-2-amino-5-(2-(2,5-difluorophenyl)pyrrolidin-1-yl)-N-(2-(dimethylamino)ethyl)pyrazolo[1,5-a]pyrimidine-3-carboxamide], the IC50 was below 1 nM.
Next, `Nc1nn2ccc(N3C[C@@H](F)C[C@@H]3c3cc(F)ccc3F)nc2c1C(=O)NCCO` [Example 49, 2-amino-5-((2R,4S)-2-(2,5-difluorophenyl)-4-fluoropyrrolidin-1-yl)-N-(2-hydroxyethyl)pyrazolo[1,5-a]pyrimidine-3-carboxamide]: below 1 nM.
Next, `CCNc1nn2ccc(N3CCC[C@@H]3c3cc(F)ccc3F)nc2c1C(=O)OCC` [Example 22, ethyl (R)-5-(2-(2,5-difluorophenyl)pyrrolidin-1-yl)-2-(ethylamino)pyrazolo[1,5-a]pyrimidine-3-carboxylate]: below 100 nM.
Next, `CCOC(=O)c1coc(-c2c(NCc3ccc(OC)cc3)nn3ccc(N4CCCC4c4cc(F)ccc4F)nc23)n1` (centres unmarked) [Example 26, ethyl 2-(5-(2-(2,5-difluorophenyl)pyrrolidin-1-yl)-2-((4-methoxybenzyl)amino)pyrazolo[1,5-a]pyrimidin-3-yl)oxazole-4-carboxylate]: below 100 nM; `CCOC(=O)c1c(N)nn2ccc(N3CCCC3c3cc(F)ccc3F)nc12` (centres unmarked) [Example 5, ethyl 2-amino-5-(2-(2,5-difluorophenyl)pyrrolidin-1-yl)pyrazolo[1,5-a]pyrimidine-3-carboxylate]: below 1 nM.
`Nc1nn2ccc(N3C[C@@H](F)C[C@@H]3c3cc(F)ccc3F)nc2c1C(=O)NC1(CO)CC1` [Example 52, 2-amino-5-((2R,4S)-2-(2,5-difluorophenyl)-4-fluoropyrrolidin-1-yl)-N-(1-(hydroxymethyl)cyclopropyl)pyrazolo[1,5-a]pyrimidine-3-carboxamide]: the IC50 was below 1 nM.
Turning to `CCOC(=O)c1csc(-c2c(N)nn3ccc(N4CCCC4c4cc(F)ccc4F)nc23)n1` (centres unmarked) [Example 29, ethyl 2-(2-amino-5-(2-(2,5-difluorophenyl)pyrrolidin-1-yl)pyrazolo[1,5-a]pyrimidin-3-yl)thiazole-4-carboxylate], the IC50 is below 1 nM.
With `CNc1nn2ccc(N3CCC[C@@H]3c3cc(F)ccc3F)nc2c1C(N)=O` [Example 21, (R)-5-(2-(2,5-difluorophenyl)pyrrolidin-1-yl)-2-(methylamino)pyrazolo[1,5-a]pyrimidine-3-carboxamide] the figure was below 500 nM; with `Nc1nn2ccc(N3CCCC3c3cc(F)ccc3F)nc2c1-c1nc(C(=O)N2CC[C@H](O)C2)cs1` (stereo partly drawn) [Example 30, (2-(2-amino-5-(2-(2,5-difluorophenyl)pyrrolidin-1-yl)pyrazolo[1,5-a]pyrimidin-3-yl)thiazol-4-yl)((S)-3-hydroxypyrrolidin-1-yl)methanone], below 1 nM.
The compound `CCOC(=O)c1c(N)nn2ccc(N3CC(=O)CC3c3cc(F)ccc3F)nc12` (centres unmarked) [Example 43, ethyl 2-amino-5-(2-(2,5-difluorophenyl)-4-oxopyrrolidin-1-yl)pyrazolo[1,5-a]pyrimidine-3-carboxylate] returned an IC50 below 25 nM.
With `Nc1nn2ccc(N3C[C@@H](F)C[C@@H]3c3cc(F)ccc3F)nc2c1C(=O)NOCCO` [Example 50, 2-amino-5-((2R,4S)-2-(2,5-difluorophenyl)-4-fluoropyrrolidin-1-yl)-N-(2-hydroxyethoxy)pyrazolo[1,5-a]pyrimidine-3-carboxamide] the figure was below 1 nM; with `Nc1nn2ccc(N3CCC[C@@H]3c3cc(F)ccc3F)nc2c1C(=O)O` [Example 2, (R)-2-amino-5-(2-(2,5-difluorophenyl)pyrrolidin-1-yl)pyrazolo[1,5-a]pyrimidine-3-carboxylic Acid], below 100 nM; with `CCOC(=O)c1c(NC(C)=O)nn2ccc(N3CCC[C@@H]3c3cc(F)ccc3F)nc12` [Example 9, ethyl (R)-2-acetylamino-5-(2-(2,5-difluorophenyl)pyrrolidin-1-yl)pyrazolo[1,5-a]pyrimidine-3-carboxylate], below 25 nM.
`Nc1nn2ccc(N3C[C@@H](F)C[C@@H]3c3cc(F)ccc3F)nc2c1C(=O)NC1CC1` [Example 51, 2-amino-N-cyclopropyl-5-((2R,4S)-2-(2,5-difluorophenyl)-4-fluoropyrrolidin-1-yl)pyrazolo[1,5-a]pyrimidine-3-carboxamide] had an IC50 below 1 nM.
Compound `NC(=O)c1c(N)nn2ccc(N3CCCC3c3cc(F)ccc3F)nc12` (centres unmarked) [Example 6, 2-amino-5-(2-(2,5-difluorophenyl)pyrrolidin-1-yl)pyrazolo[1,5-a]pyrimidine-3-carboxamide] yielded a half-inhibitory concentration (IC50) below 1 nM.
With `Nc1nn2ccc(N3CCC[C@@H]3c3cc(F)ccc3F)nc2c1C(=O)N1CCC(O)C1` (stereo partly drawn) [Example 10, (2-amino-5-((R)-2-(2,5-difluorophenyl)pyrrolidin-1-yl)pyrazolo[1,5-a]pyrimidin-3-yl) (3-hydroxypyrrolidin-1-yl)methanone], the IC50 is below 25 nM.
For the compound `Cc1coc(-c2c(N)nn3ccc(N4CCCC4c4cc(F)ccc4F)nc23)n1` (centres unmarked) [Example 27], the 50% inhibitory concentration (IC50) is below 25 nM.
With `CCOC(=O)c1c(N)nn2ccc(N3C[C@@H](F)C[C@@H]3c3cc(F)ccc3F)nc12` [Example 35, ethyl 2-amino-5-((2R,4S)-2-(2,5-difluorophenyl)-4-fluoropyrrolidin-1-yl)pyrazolo[1,5-a]pyrimidine-3-carboxylate] the figure was below 1 nM.

For the origin of these results see patent US10829492B2, “Amino pyrazolopyrimidine compound used as neurotrophic factor tyrosine kinase receptor inhibitor” (CHIA TAI TIANQING PHARMACEUTICAL GROUP CO., LTD., priority 2016, dated 2020).
